Measurements published in patent publication US12599672B2, “KRAS proteolysis targeting chimeras” (PAQ Therapeutics Inc., priority 2023, dated 2026).

Experiments:
Type in all cases: cell-based
KRAS G12V = biological target: T1, KRAS G12V (Homo sapiens, UniProt P01116, G12V); assay: KRAS G12V HiBit assay; conditions: SW620-KRAS (G12V)-HiBit-KI cells, compound treatment for 24 hours, class symbols
T1 construct: SW620-KRAS (G12V)-HiBit-KI cell (Pharmaron); host or cells: SW620-KRAS (G12V)-HiBit-KI cells (HiBiT knock-in at the endogenous KRAS locus)
Summary of the method: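 HiBiT-tagged KRAS G12V cells treated 24 h with compound in a 3-fold, 10-point series (0.3 mM DMSO stock); lytic HiBiT reagent with LgBiT added after 15 min room-temperature equilibration. Degradation calculated against 0.1% DMSO high control.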

KRAS = biological target: T2, KRAS (Homo sapiens, UniProt P01116); assay: KRASamp MSD assay; conditions: KE39 (KRAS amplified) cells, treated with test compounds for 24 hr, MSD readout of KRAS degradation
T2 construct: endogenous in cells; host or cells: KE39 (KRAS amplified) cells
Procedure: KE39 (KRAS amplified) cells were cultured in RPMI 1640 medium (Gibco, 11875093), seeded into 96 well plate and treated with test compounds for 24 hr. The cells were washed with PBS and lysed in plate for 1 hr at 4° C. with agitation in RIPA buffer (Cat No. BP-115D) supplemented with protease and phosphatase inhibitor cocktail. The lysates were loaded into MSD plate coated with KRAS capture antibody (LSBio, C175665, 1:1000) for 1 h at RT with agitation. The plate was then washed three times with TBST and incubated with KRAS detection antibody (Abcam, Ab275876. 1:2000) for 1 h at RT. After washing three times with TBST, the plate was incubated with secondary detection antibody GAR (1:500) for 1 hr at RT followed with 3×TBST washing. 2×MSD reading buffer was added into individual wells and the plate was finally read by MSD reader (MSD, SQ 120 MM). The recombinant WT KRAS protein was used for standard curve generation and protein quantification. The degradation activity was calculated using the following formula: […]
DC50 was calculated by fitting the curve using GraphPad Prism v8.0.2 (analysis 263): […]

KRAS G12D = biological target: T3, KRAS G12D (Homo sapiens, UniProt P01116, G12D); assay: KRAS G12D HiBit assay; conditions: AsPc-1-KRAS (G12D)-HiBit-KI cell, compound treatment for 24 hours, absolute DC50
T3 construct: AsPc-1-KRAS (G12D)-HiBit-KI cell (Pharmaron); host or cells: AsPc-1-KRAS (G12D)-HiBit-KI cells (HiBiT knock-in at the endogenous KRAS locus)
Summary of the method: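 Cells were treated for 24 h with compounds in a 3-fold, 10-point dilution series from a 0.3 mM DMSO stock, then equilibrated 15 min at room temperature. KRAS G12D HiBiT levels were read by luminescence after lytic Nano-Glo HiBiT reagent with LgBiT; inhibition calculated relative to 0.1% DMSO high control.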

[1] = numeric bounds given in place of class symbols

T1 sequence (P01116 1-188 isoform P01116-2 G12V): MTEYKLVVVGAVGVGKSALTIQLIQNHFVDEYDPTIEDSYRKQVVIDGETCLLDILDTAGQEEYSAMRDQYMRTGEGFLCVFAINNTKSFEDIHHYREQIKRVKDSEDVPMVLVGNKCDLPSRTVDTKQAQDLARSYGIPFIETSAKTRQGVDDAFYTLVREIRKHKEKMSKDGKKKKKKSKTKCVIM
T2 sequence (P01116 1-188 isoform P01116-2): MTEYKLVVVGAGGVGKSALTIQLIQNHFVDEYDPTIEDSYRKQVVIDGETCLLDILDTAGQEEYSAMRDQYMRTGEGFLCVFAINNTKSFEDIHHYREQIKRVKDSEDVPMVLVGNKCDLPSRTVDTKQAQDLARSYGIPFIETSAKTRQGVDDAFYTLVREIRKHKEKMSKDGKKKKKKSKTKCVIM
T3 sequence (P01116 1-188 isoform P01116-2 G12D): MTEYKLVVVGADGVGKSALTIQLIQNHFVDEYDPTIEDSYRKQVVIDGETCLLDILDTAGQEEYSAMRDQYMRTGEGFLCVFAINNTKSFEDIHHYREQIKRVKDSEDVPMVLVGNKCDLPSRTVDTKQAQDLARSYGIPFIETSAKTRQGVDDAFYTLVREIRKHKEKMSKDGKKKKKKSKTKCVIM

Structure (SMILES): CCc1c(F)ccc2cc(O)cc(-c3ncc4c(N5CC6(CCC6)C5)nc(OC[C@@]56CCCN5[C@H](COC(=O)N5CCC7(CC5)CC(N5CCC(c8ccc9c(c8)n(C)c(=O)n9C8CCC(=O)NC8=O)CC5)C7)CC6)nc4c3F)c12 (stereo partly drawn) [Compound 347, ((3S,7aS)-7a-(((7-(8-ethyl-7-fluoro-3-hydroxynaphthalen-1-yl)-8-fluoro-4-(2-azaspiro[3.3]heptan-2-yl)pyrido[4,3-d]pyrimidin-2-yl)oxy)methyl)hexahydro-1H-pyrrolizin-3-yl)methyl 2-(4-(1-(2,6-dioxopiperidin-3-yl)-3-methyl-2-oxo-2,3-dihydro-1H-benzo[d]imidazol-5-yl)piperidin-1-yl)-7-azaspiro[3.5]nonane-7-carboxylate]
- DC50 (KRAS G12V): > 100 nM
- DC50 (KRAS): ≥ 10 nM
- DC50 (KRAS G12D; [1]): > 100 nM

Structure (SMILES): Cn1c(=O)n(C2CCC(=O)NC2=O)c2ccc(C3CCN(CC4(F)CCN(C(=O)OC[C@@H]5CC[C@]6(COc7nc(N8CCC[C@@](C)(O)C8)c8cnc(-c9cc(O)cc%10ccc(F)cc9%10)c(F)c8n7)CCCN56)CC4)CC3)cc21 (stereo partly drawn) [Compound 446, ((3S,7aS)-7a-(((8-fluoro-7-(7-fluoro-3-hydroxynaphthalen-1-yl)-4-((R)-3-hydroxy-3-methylpiperidin-1-yl)pyrido[4,3-d]pyrimidin-2-yl)oxy)methyl)hexahydro-1H-pyrrolizin-3-yl)methyl 4-((4-(1-(2,6-dioxopiperidin-3-yl)-3-methyl-2-oxo-2,3-dihydro-1H-benzo[d]imidazol-5-yl)piperidin-1-yl)methyl)-4-fluoropiperidine-1-carboxylate]
- DC50 (KRAS G12V): < 10 nM
- DC50 (KRAS): < 1 nM
- DC50 (KRAS G12D; class symbols): < 100 nM

Structure (SMILES): CCc1c(F)ccc2cc(O)cc(-c3ncc4c(N5CCC[C@@](C)(O)C5)nc(OC[C@@]56CCCN5[C@H](COC(=O)N5CCC(N7CCC(Cc8ccc9c(c8)n(C)c(=O)n9C8CCC(=O)NC8=O)CC7)CC5)CC6)nc4c3F)c12 (stereo partly drawn) [Compound 430, ((3S,7aS)-7a-(((7-(8-ethyl-7-fluoro-3-hydroxynaphthalen-1-yl)-8-fluoro-4-((R)-3-hydroxy-3-methylpiperidin-1-yl)pyrido[4,3-d]pyrimidin-2-yl)oxy)methyl)hexahydro-1H-pyrrolizin-3-yl)methyl 4-((1-(2,6-dioxopiperidin-3-yl)-3-methyl-2-oxo-2,3-dihydro-1H-benzo[d]imidazol-5-yl)methyl)-[1,4′-bipiperidine]-1′-carboxylate]
- DC50 (KRAS G12V): 10 to 100 nM
- DC50 (KRAS): 1 to 10 nM
- DC50 (KRAS G12D; class symbols): < 100 nM

Structure (SMILES): CCc1c(F)ccc2cc(O)cc(-c3ncc4c(N5CCC[C@@](C)(O)C5)nc(OC[C@@]56CCCN5[C@H](COC(=O)Nc5ccc(CN7CCC(c8ccc9c(c8)n(C)c(=O)n9C8CCC(=O)NC8=O)CC7)cc5)CC6)nc4c3F)c12 (stereo partly drawn) [Compound 450, ((3S,7aS)-7a-(((7-(8-ethyl-7-fluoro-3-hydroxynaphthalen-1-yl)-8-fluoro-4-((R)-3-hydroxy-3-methylpiperidin-1-yl)pyrido[4,3-d]pyrimidin-2-yl)oxy)methyl)hexahydro-1H-pyrrolizin-3-yl)methyl (4-((4-(1-(2,6-dioxopiperidin-3-yl)-3-methyl-2-oxo-2,3-dihydro-1H-benzo[d]imidazol-5-yl)piperidin-1-yl)methyl)phenyl)carbamate]
- DC50 (KRAS G12V): < 10 nM
- DC50 (KRAS): < 1 nM
- DC50 (KRAS G12D; class symbols): < 100 nM

Structure (SMILES): C#Cc1c(F)ccc2cccc(-c3ncc4c(N5CCC[C@@](C)(O)C5)nc(OCC5(CN6CCN(CC7CCN(c8ccc9c(c8)C(=O)N(C8CCC(=O)NC8=O)C9=O)CC7)CC6)CC5)nc4c3F)c12 (stereo partly drawn) [Compound 55]
- DC50 (KRAS G12V): > 100 nM
- DC50 (KRAS): ≥ 10 nM
- DC50 (KRAS G12D; class symbols): < 100 nM

Structure (SMILES): CCc1c(F)ccc2cc(O)cc(-c3ncc4c(N5CCCC(F)(F)C5)nc(OC[C@@]56CCCN5[C@H](COC(=O)N5CCC7(CC5)CC(N5CCC(c8ccc9c(c8)n(C)c(=O)n9C8CCC(=O)NC8=O)CC5)C7)CC6)nc4c3F)c12 (stereo partly drawn) [Compound 470, ((3S,7aS)-7a-(((4-(3,3-difluoropiperidin-1-yl)-7-(8-ethyl-7-fluoro-3-hydroxynaphthalen-1-yl)-8-fluoropyrido[4,3-d]pyrimidin-2-yl)oxy)methyl)hexahydro-1H-pyrrolizin-3-yl)methyl 2-(4-(1-(2,6-dioxopiperidin-3-yl)-3-methyl-2-oxo-2,3-dihydro-1H-benzo[d]imidazol-5-yl)piperidin-1-yl)-7-azaspiro[3.5]nonane-7-carboxylate]
- DC50 (KRAS G12V): < 10 nM
- DC50 (KRAS): < 1 nM
- DC50 (KRAS G12D; class symbols): < 100 nM

Structure (SMILES): C#Cc1c(F)ccc2cc(O)cc(-c3ncc4c(N5CCC[C@@](C)(O)C5)nc(OC[C@@]56CCCN5[C@H](COC(=O)N5CCC7(CC5)CC(N5CCC(c8cccc9c8n(C)c(=O)n9C8CCC(=O)NC8=O)CC5)C7)CC6)nc4c3F)c12 (stereo partly drawn) [Compound 387, ((3S,7aS)-7a-(((7-(8-ethynyl-7-fluoro-3-hydroxynaphthalen-1-yl)-8-fluoro-4-((R)-3-hydroxy-3-methylpiperidin-1-yl)pyrido[4,3-d]pyrimidin-2-yl)oxy)methyl)hexahydro-1H-pyrrolizin-3-yl)methyl 2-(4-(1-(2,6-dioxopiperidin-3-yl)-3-methyl-2-oxo-2,3-dihydro-1H-benzo[d]imidazol-4-yl)piperidin-1-yl)-7-azaspiro[3.5]nonane-7-carboxylate]
- DC50 (KRAS G12V): < 10 nM
- DC50 (KRAS): ≥ 10 nM
- DC50 (KRAS G12D; class symbols): < 100 nM

Structure (SMILES): CCc1c(F)ccc2cc(O)cc(-c3ncc4c(N5CCCC(F)(F)C5)nc(OC[C@@]56CCCN5[C@H](COC(=O)N5CCC(CN7CCC(c8ccc9c(c8)n(C)c(=O)n9C8CCC(=O)NC8=O)CC7)CC5)CC6)nc4c3F)c12 (stereo partly drawn) [Compound 437, ((3S,7aS)-7a-(((4-(3,3-difluoropiperidin-1-yl)-7-(8-ethyl-7-fluoro-3-hydroxynaphthalen-1-yl)-8-fluoropyrido[4,3-d]pyrimidin-2-yl)oxy)methyl)hexahydro-1H-pyrrolizin-3-yl)methyl 4-((4-(1-(2,6-dioxopiperidin-3-yl)-3-methyl-2-oxo-2,3-dihydro-1H-benzo[d]imidazol-5-yl)piperidin-1-yl)methyl)piperidine-1-carboxylate]
- DC50 (KRAS G12V): < 10 nM
- DC50 (KRAS): < 1 nM
- DC50 (KRAS G12D; class symbols): < 100 nM

Structure (SMILES): C#Cc1c(F)ccc2cc(O)cc(-c3ncc4c(N5CCC[C@@](C)(O)C5)nc(OC[C@@]56CCCN5[C@H](COC(=O)NC5CN(C7CCN(c8ccc9c(c8)n(C)c(=O)n9C8CCC(=O)NC8=O)CC7)C5)CC6)nc4c3F)c12 (stereo partly drawn) [Compound 325, ((3S,7aS)-7a-(((7-(8-ethynyl-7-fluoro-3-hydroxynaphthalen-1-yl)-8-fluoro-4-((R)-3-hydroxy-3-methylpiperidin-1-yl)pyrido[4,3-d]pyrimidin-2-yl)oxy)methyl)hexahydro-1H-pyrrolizin-3-yl)methyl (1-(1-(1-(2,6-dioxopiperidin-3-yl)-3-methyl-2-oxo-2,3-dihydro-1H-benzo[d]imidazol-5-yl)piperidin-4-yl)azetidin-3-yl)carbamate]
- DC50 (KRAS G12V): > 100 nM
- DC50 (KRAS): ≥ 10 nM
- DC50 (KRAS G12D; [1]): > 100 nM

Structure (SMILES): CCc1c(F)ccc2cc(O)cc(-c3cc4nc(OC[C@@]56CCCN5[C@H](COC(=O)N5CCC7(CC5)CC(N5CCC(c8ccc9c(c8)n(C)c(=O)n9C8CCC(=O)NC8=O)CC5)C7)CC6)nc(N5CCC[C@@](C)(O)C5)c4cn3)c12 (stereo partly drawn) [Compound 461, ((3S,7aS)-7a-(((7-(8-ethyl-7-fluoro-3-hydroxynaphthalen-1-yl)-4-((R)-3-hydroxy-3-methylpiperidin-1-yl)pyrido[4,3-d]pyrimidin-2-yl)oxy)methyl)hexahydro-1H-pyrrolizin-3-yl)methyl 2-(4-(1-(2,6-dioxopiperidin-3-yl)-3-methyl-2-oxo-2,3-dihydro-1H-benzo[d]imidazol-5-yl)piperidin-1-yl)-7-azaspiro[3.5]nonane-7-carboxylate]
- DC50 (KRAS G12V): < 10 nM
- DC50 (KRAS): < 1 nM
- DC50 (KRAS G12D; class symbols): < 100 nM

Structure (SMILES): CCc1c(F)ccc2cc(O)cc(-c3ncc4c(N5CCC[C@@](C)(O)C5)nc(OC[C@@]56CCCN5[C@H](COC(=O)N5CCC(OCCC#Cc7cccc8c7n(C)c(=O)n8C7CCC(=O)NC7=O)CC5)CC6)nc4c3F)c12 (stereo partly drawn) [Compound 370, ((3S,7aS)-7a-(((7-(8-Ethyl-7-fluoro-3-hydroxynaphthalen-1-yl)-8-fluoro-4-((R)-3-hydroxy-3-methylpiperidin-1-yl)pyrido[4,3-d]pyrimidin-2-yl)oxy)methyl)hexahydro-1H-pyrrolizin-3-yl)methyl4-((4-(1-(2,6-dioxopiperidin-3-yl)-3-methyl-2-oxo-2,3-dihydro-1H-benzo[d]imidazol-4-yl)but-3-yn-1-yl)oxy)piperidine-1-carboxylate]
- DC50 (KRAS G12V): < 10 nM
- DC50 (KRAS): 1 to 10 nM
- DC50 (KRAS G12D; class symbols): < 100 nM
